The LD50 is the dose at which mortality reaches 50%.

Consider six molecules from patent publication US4432348A, “Enhancer of anti-tumor effect” (Yamasa Shoyu Kabushiki Kaisha, priority 1980, dated 1984).

Molecules are shown by their SMILES.

Series [1] deals with EMT-6 tumor. Description: Radiosensitizing effect on EMT-6 experimental tumors in mice (enhancer i.p. after local irradiation). The class given is in vivo, BALB/c-strain female mice. To be noted: for Diameter ratio / Mean tumor diameter / Volume ratio: irradiation 1500 rad + i.p. enhancer (3'-dGuo-5'-MP 100 mg/kg; 3'-dAdo-5'-MP 75 mg/kg); for 0.5 to less than 1 of volume ratio excluding cure; Tumor regression rate: slow, share of mice / 1.0 to less than 2.0 of volume ratio excluding cure; regrowth: slow, share of mice / 2.0 or more of volume ratio excluding cure; regrowth: rapid, share of mice / Cure (tumors completely vanished), share of mice / Less than 0.5 of volume ratio excluding cure; Tumor regression rate: rapid, share of mice: 28th day after treatment, irradiation 1500 rad + enhancer (3'-dGuo-5'-MP 100 mg/kg; 3'-dAdo-5'-MP 75 mg/kg); for Mean tumor diameter at the time of irradiation: baseline before irradiation (1500 rad) and i.p. enhancer (3'-dGuo-5'-MP 100 mg/kg, n = 9; 3'-dAdo-5'-MP 75 mg/kg, n = 10); for Radiosensitizing activity: summary statement. How it is done:
EMT-6 tumor cells (2×10^5) were inoculated intradermally into the right thighs of BALB/c-strain female mice (8 weeks old, 6 or more mice for each group). When the tumor size reached 6 to 7 mm in diameter after inoculation of the tumor cells, local irradiation with a 32 MeV electron beam was carried out at 1,500 rad under no anesthesia and thereafter 3'-dGuo-5'-MP and 3'-dAdo-5'-MP dissolved in physiological saline solution, was administered intraperitoneally to each mouse in the indicated doses of respective agents. After these treatments, the tumor sizes were measured in tri-dimensional diameters every day or every other day for 28 days, and compared with the control group with respect to the following items: [formula]
The results are shown in Table 1 and Table 2, in which "cure" means that the tumors completely vanished during the observation period.

In series [2] the test system is EMT-6 tumor. Briefly: Enhancement of the effect of anti-tumor agents (araC) on EMT-6 experimental tumors in mice. In kind it is in vivo, BALB/c-strain female mice. How it is done:
EMT-6 tumor cells (1×10^6) were inoculated intradermally into the right thighs of BALB/c-strain female mice (8 weeks old). On the 11th day after inoculation of the tumor cells and thereafter, 3'-dGuo-5'-MP in physiological saline solutions were administered intrapenitoneally to the mice for 8 consecutive days in the dose of 50 mg/kg. The pharmaceutical agents of the present invention were administered an hour after administration of araC. After commencement of the treatment with pharmaceutical agents, the tumor sizes were measured and compared with the control group.

Series [3] in a line: Acute toxicity test, intraperitoneal. Conditions: mouse, in vivo, ip, ICR mice, male, 8 weeks old, observed for a week. The protocol:
The compounds of this invention were administered intraperitoneally to ICR mice (male, 8 weeks old, 10 mice for each group), and the mice were subjected to observation for a week.

For series [4] the following is noted: background art; cited from earlier work.
Series [5] concerns adenosinedeaminase. Conditions: cited from earlier work.
Series [6] concerns potentially lethal damage repair (PLDR). Description: Inhibition of potentially lethal damage repair (PLDR). The text has this: In view of the fact that the tumor cells with radioresistance under hypoxic conditions are at a quiescent stage, I have investigated the possibility of radiosensitization by inhibiting potentially lethal damage repair (hereinafter referred to as "PLDR"), which is especially marked in quiescent cells.

The test system of series [7] is adenosinedeaminase. To be noted: in bodies; cited from earlier work.
Setting [8] is: 7 days after commencement of treatment, single agent 50 mg/kg × 8.
The mark [9] stands for this setting: 7 days after commencement of treatment, single agent 50 mg/kg × 8 (n = 10).
Setting [10] is: 14 days after commencement of treatment, single agent 50 mg/kg × 8.
[11] abbreviates: 14 days after commencement of treatment, single agent 50 mg/kg × 8 (n = 10).
The mark [12] stands for this setting: 21 days after commencement of treatment, single agent 50 mg/kg × 8.
Setting [13] is: 21 days after commencement of treatment, single agent 50 mg/kg × 8 (n = 10).
[14] abbreviates: immediately before commencement of treatment, single agent 50 mg/kg × 8 (n = 10).

With `Nc1nc2c(ncn2[C@@H]2O[C@H](COP(=O)(O)O)C[C@H]2O)c(=O)[nH]1` [3'-dGuo-5'-MP, 3'-deoxyguanosine-5'-monophosphate], the Diameter ratio in the series on EMT-6 tumor [1] (2 weeks after treatment) came to 0.93 ± 0.13; with EMT-6 tumor [1] (3 weeks after treatment), 0.90 ± 0.18. Also, the Mean tumor diameter with EMT-6 tumor [1] (2 weeks after treatment) came to 6.17 ± 0.90 mm; in the series with EMT-6 tumor [1] (3 weeks after treatment), 5.95 ± 1.22 mm; in the series on EMT-6 tumor [2] (setting [9]), 9.83 ± 1.07 mm; with EMT-6 tumor [2] (7 days after commencement, combination araC 50 mg/kg × 8 + 3'-dGuo-5'-MP 50 mg/kg × 8 (1 h after araC)), 8.28 ± 1.11 mm; in the series on EMT-6 tumor [2] (setting [11]), 12.10 ± 2.00 mm; with EMT-6 tumor [2] (14 days after commencement, combination araC 50 mg/kg × 8 + 3'-dGuo-5'-MP 50 mg/kg × 8 (1 h after araC)), 9.12 ± 3.67 mm. Moreover, the Mean tumor diameter in the series with EMT-6 tumor [2] (setting [13]) was 15.40 ± 2.01 mm; in the series on EMT-6 tumor [2] (21 days after commencement, combination araC 50 mg/kg × 8 + 3'-dGuo-5'-MP 50 mg/kg × 8 (1 h after araC)) it was 12.07 ± 4.98 mm; with EMT-6 tumor [2] (immediately before commencement of treatment, combination araC 50 mg/kg × 8 + 3'-dGuo-5'-MP 50 mg/kg × 8 (n = 9)), 7.34 ± 0.62 mm; in the series with EMT-6 tumor [2] (setting [14]), 7.57 ± 0.64 mm. Besides, the Volume ratio was found to be 1.19 ± 0.32 with EMT-6 tumor [1] (2 weeks after treatment) and 1.45 ± 0.46 in the series with EMT-6 tumor [1] (3 weeks after treatment). Besides, the “0.5 to less than 1 of volume ratio excluding cure; Tumor regression rate: slow, share of mice” value with EMT-6 tumor [1] is on record as 22%. Moreover, the “1.0 to less than 2.0 of volume ratio excluding cure; regrowth: slow, share of mice” value with EMT-6 tumor [1] is given as 56%. Further, the “2.0 or more of volume ratio excluding cure; regrowth: rapid, share of mice” value in the series with EMT-6 tumor [1] is listed as 0%. Further, in the series with EMT-6 tumor [1], the “Cure (tumors completely vanished), share of mice” value is listed as 22%. In addition, the “Less than 0.5 of volume ratio excluding cure; Tumor regression rate: rapid, share of mice” value in the series with EMT-6 tumor [1] was 0%. Moreover, the “Mean tumor diameter at the time of irradiation” value with EMT-6 tumor [1] came out at 6.46 ± 0.23 mm. Further, the Radiosensitizing activity entry in the series on EMT-6 tumor [1] is on record as “excellent radiosensitizing activities”. Besides, the “Mean tumor diameter ratio” value worked out at 1.30 ± 0.13 in the series on EMT-6 tumor [2] (setting [8]); 1.13 ± 0.15 in the series with EMT-6 tumor [2] (7 days after commencement, combination araC 50 mg/kg × 8 + 3'-dGuo-5'-MP 50 mg/kg × 8); 1.61 ± 0.27 in the series on EMT-6 tumor [2] (setting [10]); 1.26 ± 0.51 in the series on EMT-6 tumor [2] (14 days after commencement, combination araC 50 mg/kg × 8 + 3'-dGuo-5'-MP 50 mg/kg × 8); 2.05 ± 0.32 with EMT-6 tumor [2] (setting [12]); 1.67 ± 0.68 with EMT-6 tumor [2] (21 days after commencement, combination araC 50 mg/kg × 8 + 3'-dGuo-5'-MP 50 mg/kg × 8). Further, the 50% lethal dose (LD50) at 168 h in series [3] is > 1000 mg/kg.
`OC[C@H]1O[C@@H](n2cnc3c2NC=NC[C@H]3O)C[C@@H]1O` [2'-deoxycoformycin]: the “Toxicity / side effects” value in series [4] was “may cause damage to the immune systems”. Moreover, in the series with adenosinedeaminase [5], the Adenosinedeaminase inhibition entry is given as “inhibitor against adenosinedeaminase”.
Take `Nc1ncnc2c1ncn2[C@@H]1O[C@H](COP(=O)(O)O)C[C@H]1O` [3'-dAdo-5'-MP, 3'-deoxyadenosine-5'-monophosphate]: in the series on EMT-6 tumor [1] (2 weeks after treatment), the Diameter ratio turned out to be 0.66 ± 0.14, the Mean tumor diameter was 4.75 ± 1.06 mm and the Volume ratio is recorded as 0.63 ± 0.18. Further, in the series on EMT-6 tumor [1] (3 weeks after treatment), the Diameter ratio is on record as 0.49 ± 0.17, the Mean tumor diameter is reported as 3.65 ± 1.24 mm and the Volume ratio amounted to 0.58 ± 0.27. Besides, in the series on EMT-6 tumor [1], the “0.5 to less than 1 of volume ratio excluding cure; Tumor regression rate: slow, share of mice” value was determined as 0%; the “1.0 to less than 2.0 of volume ratio excluding cure; regrowth: slow, share of mice” value is recorded as 20%; the “2.0 or more of volume ratio excluding cure; regrowth: rapid, share of mice” value is 10%; the “Cure (tumors completely vanished), share of mice” value amounted to 50%. Further, in the series with EMT-6 tumor [1], the “Less than 0.5 of volume ratio excluding cure; Tumor regression rate: rapid, share of mice” value came to 20%; the “Mean tumor diameter at the time of irradiation” value amounted to 7.07 ± 0.23 mm; the Radiosensitizing activity entry was “excellent radiosensitizing activities”. In series [3], this molecule returned an LD50 at 168 h of 500 mg/kg.
With `Nc1ccn([C@@H]2O[C@H](CO)[C@@H](O)[C@@H]2O)c(=O)n1` [araC, 1-β-D-arabinofuranosylcytosine, reference compound], the “Mean tumor diameter ratio” value in the series on EMT-6 tumor [2] (setting [8]) is recorded as 1.29 ± 0.13; in the series on EMT-6 tumor [2] (setting [10]), 1.60 ± 0.20; with EMT-6 tumor [2] (setting [12]), 2.08 ± 0.20. For the same molecule, the Mean tumor diameter with EMT-6 tumor [2] (setting [9]) came to 9.63 ± 0.68 mm; in the series on EMT-6 tumor [2] (setting [11]), 11.91 ± 1.21 mm; in the series on EMT-6 tumor [2] (setting [13]) it was 15.49 ± 1.26 mm; in the series on EMT-6 tumor [2] (setting [14]), 7.49 ± 0.63 mm.
On to `COCC(O)Cn1ccnc1[N+](=O)[O-]` (stereo not drawn) [misonidazole], for which the “Toxicity / side effects” value in series [4] is recorded as “neurotoxicity”.
In the case of `Nc1ncnc2c1ncn2[C@@H]1O[C@H](CO)C[C@H]1O` [3'-dAdo, 3'-deoxyadenosine], in the series on EMT-6 tumor [1], the Radiosensitizing activity entry is “excellent radiosensitizing activities”. Also, in series [6], the PLDR-inhibiting ability entry is reported as “confirmed to have a PLDR-inhibiting ability”. For the same molecule, the “PLDR-inhibiting ability in combination with 2'-deoxycoformycin” value in series [6] (in combination with 2'-deoxycoformycin) is “can be strengthened and prolonged”. In the series with adenosinedeaminase [7], the Inactivation by adenosinedeaminase result was “readily inactivated by adenosinedeaminase”. The “Toxicity / side effects” value in series [4] is “various side effects”.
